How the values were obtained:
GST-p53 His175 = GST-p53 His175 (Homo sapiens, UniProt P04637, R175H); assay: Dot immunobinding test with purified GST-p53 fusion proteins; format: binding; settings: 20 μg GST fusion purified proteins
Description: (A) Total extracts deriving from SKBR3, (His-175) HT29, (His-273) and H1299 (p53 free) tumour cells have been incubated (1 mg) on SIMP1 and SIMPIKO peptide labelled nitrocellulose membrane and Dot Blot analysed. In (B) the membranes have been incubated with 20 μg of wild type WT GST-p53 purified protein or GST-p53 His-175, GST-p53-His-175, 74-298 or GST alone. In both experiments dots have been detected by labelling the membranes with anti-p53 (DO1) antibody
Nitrocellulose membranes have been cut, washed with water and blotted on the paper filters. The peptides at 250 mM concentration have been transferred on membrane. Labelled membrane has been washed for 10 min. with TBST buffer (10 mM Tris-HCl pH 7.4, 150 mM NaCl, 0.05% (v/v) Tween-20) and then blocked for 45 min with TBST/5% milk. Then the membranes have been incubated for 6 hours at 4° C. in shaker with 1 mg of total protein extract or 20 μg of GST fusion purified proteins. Successively the membranes have been washed with TBST buffer and decorated with anti-p53 antibody (DO1) as a primary antibody. As secondary antibody horse peroxidase conjugated goat antibody has been used. Immunolabelled lanes have been detected using chemiluminescence analysis (Pierce).
The membranes decorated with SIMP peptides also have been incubated with GST-p53 His175, GST p53His74-298, GST WTp53 fusion proteins, GST control.

HT29 cells = assay: In vivo tumorigenicity test (xenograft of peptide transfected HT29 cells); settings: naked mice, s.c. 5×10^5 peptide transfected cells/mouse, 5 weeks
Description: In order to assay SIMP1 in vivo antitumor activity nu/nu […] mice were administered subcutaneously with SIMP1, SIMP1KO and SIMP5M transfected HT29 cells (5.0×10^5 cells/mouse). Tumour growth has been monitored over 5 weeks.
Xenograft assays have been carried out by administration to naked mice subcutaneous injections containing 5×10^5 cells/mouse of SIMP1, SIMP1KO and SIMP5M peptide transfected colon and rectum tumour human cell line (nu/nu CD1 Charles River mice). The tumour growth together with animal body weight is monitored for 5 weeks in order to estimate the chronic toxicity
The experiments have been carried out by administration to naked mouse (nu/nu CD1 Charles River mice) subcutaneous injections containing 5×10^5 cells/mouse. The tumour growth has been monitored together with animal body weight for 5 weeks in order to estimate possible not occurred chronic toxic effects (FIG. 5).

[1] = system: tumour cell lines containing His-175 or His-273 p53 mutation; assay: Summary of activity by p53 mutation type; format: cell-based; settings: for activity on p53 mutant categories (His-175, His-273): summary statement; for specificity for p53 mutation type: FIG. 6 summary
Excerpt: SIMP1M: FQQSSTARSATW (SEQ ID NO:16) (MW: 1369, PI: 9.75) peptide is a mutated version of SIMP1 peptide wherein K138 residue has been replaced by Arginine.
FIG. 6 that SIMP peptides and by-products thereof displace protein complexes involving mutated protein p53 and p73.

m-p53His-273/p73 complex = target: T1, m-p53His-273/p73 complex (Homo sapiens, UniProt P04637, R273H); assay: Coprecipitation (immunoprecipitation) test of the m-p53/p73 complex in MDA-MB-468 cells; format: cell-based; settings: His-273 mutation, peptide 20 μM, anti-p73 immunoprecipitation
T1 construct: Total cellular lysates (1 mg), have been immunoprecipitated with antibodies directed against p73; endogenous in cells; host or cells: MDA-MB-468
Description: (§1) (A) MDA-MB-468 (5×10^5) cells have been transfected using a lipofectamine containing mixture, βgal expression vector, which normalizes transfection efficiency, and SIMPI peptide (20 μM). Total cellular lysates (1 mg), have been immunoprecipitated with antibodies directed against p73 and immunoglobulins (IgG). Immunoprecipitates and an aliquot (50 μg) of total lysate after 12% acrylamide gel electrophoretic run have been transferred on nitrocellulose membrane and labelled with antibodies shown in the figure. (B) MDA-MB-468 cells, have been transfected using SIMP1 and SIMP5,6. peptides. Successively, cells have been washed and stimulated with 3 μM Adriamycin. Total obtained lysates (30 μg) have been assayed for the expression of PARP and BAX apoptotic proteins. Lysate has been normalized by assaying γ-tubulin expression. (C-D). Transactivation tests have been carried out by transient transfection of H1299 cells using a mixture containing lipofectamine, SIMP1, SIMP5,6 indicated plasmids (20 μM each) together with pLUC-BAX reporter vector. To each reaction mixture an equal amount of […] expression vector was added, in order to normalize the transfection efficiency.
The cell extracts have been processed in a lysis buffer containing 50 mm Tris HCl pH 8, 100 mM NaCl, 10% glycerol, 1% Triton X-100, 1 mM EDTA, 100 mM NaF, MgCl2, 1 mM PMSF, protease and phosphatase inhibitors. Then extracts have been sonicated and centrifuged at 14.000 rpm for 10 min for the debris removal.
50 μg of solubilised proteins have been separated by electrophoresis on 10 or 15% SDS-polyacrylamide gel. Western blot analysis has been carried out using anti-p53 primary antibodies (DO1 Calbiochem), rabbit anti-PARP, rabbit polyclonal anti-Bax, anti-p21 and anti-tubulin monoclonal antibodies (Calbiochem). […] Immunolabelled lanes have been detected using chemiluminescence analysis (Pierce). […]
In order to evaluate the activity of SIMPI peptide and SIMP1KO and SIMP1M derivatives the ability in disrupting the oncogenic m-p53His-273/p73 complex has been analysed.

MDA-MB-468 cells = assay: Apoptotic tests (PARP and BAX expression, Western blot) after Adriamycin; format: cell-based, human; settings: MDA-MB-468, 3 μM Adriamycin
Description: as §1
50 μg of solubilised proteins have been separated by electrophoresis on 10 or 15% SDS-polyacrylamide gel. Western blot analysis has been carried out using anti-p53 primary antibodies (DO1 Calbiochem), rabbit anti-PARP, rabbit polyclonal anti-Bax, anti-p21 and anti-tubulin monoclonal antibodies (Calbiochem). Goat anti-mouse and goat anti-rabbit horse peroxidase conjugated secondary antibodies (Amersham) have been used for the expression analyses. Immunolabelled lanes have been detected using chemiluminescence analysis (Pierce).
To this end cell viability and apoptotic tests (FIG. 1B, FIG. 4 B-C) on MDA-MB468 breast carcinoma have been carried out.

[2] = system: m-p53 His273 inhibition on p73 transcription activity; assay: Transactivation test with pLUC-BAX reporter in transiently transfected H1299 cells; format: cell-based, human; settings: peptides 20 μM each
Description: as §1, with “efficiency. […]” for “efficiency.”
To this end, we have analyzed the ability in blocking the His273 p53 induced inhibition on transcription activity. […]

[3] = system: MDA-MB-468 cells (His-273 p53 mutation); assay: Transactivation test (pLUC-BAX, pLUC-p21) in Adriamycin treated MDA-MB-468 cells; format: cell-based, human; settings: MDA-MB-468, 3 μM Adriamycin 24 hours post-transfection, luciferase reporter
Description: MDA-MB-468 cells have been transfected using a mixture containing lipofectamine, pLUC-BAX plasmid, β-galactosidase expression vector, SIMP1 and SIMP control peptides. The cells, 24 hours post-transfection, have been treated with 3 μM Adriamycin.
MDA-MB-468 cells have been transfected using a mixture containing lipofectamine, pLUC-BAX plasmid, pLUC-p21, β-galactosidase expression vector, SIMP1 peptides and SIMP1M and SIMP1KO derived mutant thereof. The cells, 24 hours post-transfection, have been treated with 3 μM Adriamicyn and then processed.
SKBR3, HT-29, MDA-MB-468 cell lines have been transfected with Lipofectamine 2000 according to the supplier instructions (InVitrogen).
Cells (1.5×10^5) have been transiently transfected using SIMP peptides, expression plasmids and reporter constructs as internal controls for transfection efficiency. After the transfection, SKBR3, HT-29 and MDA-MB-468 have been incubated with 3 μM ADR over 24 hours. Cells have been washed with cold PBS and re-suspended in lysis buffer (Promega) and incubated for 10 min at room temp. Insoluble material has been centrifuged and luciferase activity has been determined using a commercial kit with a luminometer (Turner).

[4] = system: MDA-MB468 breast and HT29 colon carcinoma cell lines; assay: Cell viability / proliferation assays after peptide transfection; format: cell-based, human; settings: peptide transfected cells
Description: (A) In order to verify the SIMPI peptide specificity, independently from the cellular context, we tested SIMP1 peptides in some Adriamicyn treated colon carcinoma HT29 (His-273). cell lines. The cells have been transfected using a mixture containing lipofectamine, pLUC-BAX plasmid, β-galactosidase expression vector, SIMP1 and SIMP5M control peptides. 24 hours post-transfection, have been treated with 3 μM Adriamicyn. (B-C). Viability and inhibition assays have been carried out after transfection using SIMP1 and SIMP5M peptides in HT29 (colon cancer) and MDA-MB-468 (breast cancer) cell lines
Cell viability has been tested using Trypan Blue exclusion assays.
We observed a reduction of cell proliferation in MDA-MB468 breast and HT29 colon carcinoma cell lines.

[5] = system: SKBR3 tumour lines, containing his-175 mutation; settings: SKBR3, his-175 mutation; cited from earlier work
SW480 and MDA-MB-468 = settings: cell lines containing other types of mutation (SW480, MDA-MB-468); cited from earlier work

Row | Sequence | reaction with GST-p53 fusion proteins (dot blot, anti-p53 DO1) (GST-p53 His175) | tumour growth (tumour size) in vivo (HT29 cells) | activity on p53 mutant categories (His-175, His-273) [1] | specificity for p53 mutation type [1] | sensitivity to chemotherapeutic treatment [5] | change in apoptotic response (SW480 and MDA-MB-468) | further results
1 | FQQSSTAASATW (SEQ ID NO1 wherein K is substituted by A) [SIMP1KO] | no reaction was observed | tumour growth similar to non treated control | displays no activity on both mutant categories | – | – | – | –
2 | FQQSSTARSATW (SEQ ID NO1 wherein k is substituted by R) [SIMP1M] | – | meaningful reduction of the growth (tumour size) | displays the same, although increased, functions | display specificity for His-273 mutation containing tumours | – | – | disruption of m-p53 His-273/p73 protein complex (p73 bound m-p53 amount) (m-p53His-273/p73 complex): disrupt selectively m-p53/p73 complex; apoptotic response (MDA-MB-468 cells): increase the apoptotic response to chemotherapeutic agents; restoration of p73 transcription activity inhibited by m-p53 His273 [2]: modify mutated p53/p73 protein complex restoring p73 oncosuppressive functions; Adriamycin chemosensitivity / p73 transcription response [3]: increase Adriamycin chemosensitivty; cell proliferation in vitro [4]: reduce the cell proliferation in vitro; activity on tumour cell lines containing different mutation types ([1]; mutations other than His-273): has no activity on tumour cell lines containing different mutation types
3 | GQRDFNEGQSAPA (p73 SIMP (aa 200-211) wherein Q has been inserted between G (aa200) and R (aa201)) [SIMP6] | – | – | – | – | more sensitive to chemotherapeutic treatment | do not induce changes in the apoptotic response | –
4 | VVKRCPNHE (p73 SIMP (aa 190-198)) [SIMP5] | – | – | – | – | more sensitive to chemotherapeutic treatment | do not induce changes in the apoptotic response | –
5 | VVKRCPNHELGRD (p73 SIMP (aa 190-202)) [SIMP5M, control peptide, reference compound] | specifically reacts against his175 m-p53 | tumour growth similar to non treated control | – | specific for His-175 mutation containing tumours | – | – | –
